Literature values as cited in patent publication US10016426B2, “Pharmaceutical compositions for substituted quinazolinones” (Resverlogix Corp., priority 2011, dated 2018).

Columns and labels:
[1] = following oral administration; Gugler et al. (1975)
[2] = system: HDL-C level; conditions: subjects with low HDL-C; Rubins et al. (1999)

SMILES	intestinal absorption [1]	increase in the HDL-C level [2] [%]	reduction of the CHD risk [2] [%]
O=c1c(O)c(-c2ccc(O)c(O)c2)oc2cc(O)cc(O)c12 [quercetin]	less than 1%	–	–
Cc1ccc(C)c(OCCCC(C)(C)C(=O)O)c1 [gemfibrozil]	–	6	22
